These are literature values, as cited in US20040115233A1, “Composition for improving skin environment and clothes thereof” (priority 2001, published 2004).

One series has as its system microorganisms. The settings on record: among components of tea tree oil.
The subject of series [1] is patients with atopic diseases.

Turning to `CC1=CCC(C(C)C)=CC1` [γ-terpinene], the antibacterial action entry in the series with microorganisms is on record as “some antibacterial actions”.
For `CC1=CCC(C(C)(C)O)CC1` (stereo not drawn) [α-terpineol], the antibacterial action entry in the series on microorganisms was “some antibacterial actions”.
On to `CCCCCC=CCC=CCC=CCCCCC(=O)O` [γ-linolenic acid, 6,9,12-octadecatrienic acid], for which the alleviating itching entry in series [1] (patients with mild to medium atopic diseases (127 children and 240 adults)) is on record as “effective for alleviating itching”. For the same compound, the “serious cases in which the disease was improved” value in series [1] (serious cases) is listed as 116 of 179.
Turning to `CC1=CC=C(C(C)C)CC1` [α-terpinene], in the series on microorganisms, the antibacterial action entry is “some antibacterial actions”.
On to `Cc1ccc(C(C)C)cc1` [paracimene], for which the antibacterial action entry in the series with microorganisms is “some antibacterial actions”.
